Values of other authors in patent publication US20120276003A1, “COMPOUND CONTAINING AN OXYGEN-15, PREPARATION AND USE THEREOF, AND COMPOSITION COMPRISING THEREOF” (Beijing Top Grade Medical Equipment Co., Ltd., priority 2011, published 2012).

Details: perfusion imaging agent; stated 'academically'

For [15OH2] [^15O-water], the “one-time through uptake rate” value is given as about 100%.
